Test results from ChEMBL document CHEMBL1124317, “Rationale for the synthesis and preliminary biological evaluation of highly active new antitumor nitrosoureido sugars” (J Med Chem, 1989).

What was measured:
Mus musculus [1] = test: The number of L1210 leukemia mice survived after 30 days with compound injected by a dose of 5 mg/kg intraperitoneally; 8/8; type: functional; details: route intraperitoneal
Mus musculus [2] = species: Mus musculus; test: (§1) Lethal dose was evaluated in male mouse; type: toxicity, organism-based; details: in vivo
[3] = as §1; type: toxicity, organism-based; details: in vivo
[4] = Mortality range of the mice with B16 Melanocarcinoma treated with 20 mg/kg of dose intraperitoneally with no of mice survived/no of mice treated; 0/10; type: functional; details: route intraperitoneal
Mus musculus [5] = test: The number of B16 Melanocarcinoma mice survived after 60 days with compound injected by a dose of 10 mg/kg intraperitoneally; 3/10; type: functional; details: route intraperitoneal
Mus musculus [6] = test: Anti tumor activity l when treated to mice with L1210 leukemia with 1.25 mg/kg dose of compound intraperitoneally was expressed as percent of treated to control (T/C %); type: functional; details: route intraperitoneal
Mus musculus [7] = test: The number of L1210 Leukemia mice survived after 60 days with compound in olive oil injected by a dose of 20 mg/kg intraperitoneally; 7/15; type: functional; details: route intraperitoneal
Mus musculus [8] = test: Anti tumor activity l when treated to mice with B16 Melanocarcinoma with 5 mg/kg dose of compound intraperitoneally was expressed as percent of treated to control (T/C %); type: functional; details: route intraperitoneal
[9] = Mortality range of the mice with L1210 leukemia treated with 10 mg/kg of dose intraperitoneally with no of mice survived/no of mice treated; 0/8; type: functional; details: route intraperitoneal
Mus musculus [10] = test: Median survival time of the non surviving mice; treated with 5 mg/kg of compound to mice with B16 Melanocarcinoma; 30-47; type: functional
Mus musculus [11] = test: The number of L1210 leukemia mice survived after 60 days with compound injected by a dose of 10 mg/kg intraperitoneally; 9/10; type: functional; details: route intraperitoneal
[12] = Mortality range of the mice with L1210 leukemia treated with 30 mg/kg of dose intraperitoneally with no of mice survived/no of mice treated; 1/10; type: functional; details: route intraperitoneal
Mus musculus [13] = test: The number of L1210 leukemia mice survived after 60 days with compound injected by a dose of 2.5 mg/kg intraperitoneally; 0/8; type: functional; details: route intraperitoneal
Mus musculus [14] = test: Median survival time of the non surviving mice; treated with 10 mg/kg of compound to mice with B16 Melanocarcinoma; 34-47; type: functional
Mus musculus [15] = test: The number of B16 Melanocarcinoma mice survived after 30 days with compound injected by a dose of 20 mg/kg intraperitoneally; 10/10; type: functional; details: route intraperitoneal
Mus musculus [16] = test: The number of Lewis lung mice survived after 30 days with compound in olive oil injected by a dose of 20 mg/kg intraperitoneally; 20/20; type: functional; details: route intraperitoneal
Mus musculus [17] = test: The number of L1210 leukemia mice survived after 60 days with compound injected by a dose of 30 mg/kg intraperitoneally; 9/10; type: functional; details: route intraperitoneal
[18] = Mortality range of the mice with L1210 leukemia treated with 10 mg/kg of dose intraperitoneally with no of mice survived/no of mice treated; 0/10; type: functional; details: route intraperitoneal
Mus musculus [19] = test: The number of B16 Melanocarcinoma mice survived after 30 days with compound injected by a dose of 30 mg/kg intraperitoneally; 10/10; type: functional; details: route intraperitoneal
Mus musculus [20] = test: The number of L1210 leukemia mice survived after 30 days with compound injected by a dose of 1.25 mg/kg intraperitoneally; 0/8; type: functional; details: route intraperitoneal
Mus musculus [21] = test: The number of L1210 leukemia mice survived after 60 days with compound injected by a dose of 10 mg/kg intra peritoneally; 8/8; type: functional
Mus musculus [22] = test: Median survival time of the non surviving mice; treated with 5 mg/kg of compound to mice with L1210 leukemia; 11-32; type: functional
[23] = Mortality range of the mice with B16 Melanocarcinoma treated with 5 mg/kg of dose intraperitoneally with no of mice survived/no of mice treated; 0/10; type: functional; details: route intraperitoneal
Mus musculus [24] = test: The number of Lewis lung mice survived after 60 days with compound in olive oil injected by a dose of 20 mg/kg intraperitoneally; 18/20; type: functional; details: route intraperitoneal
Mus musculus [25] = test: Anti tumor activity in olive oil when treated to mice with L1210 leukemia with 20 mg/kg dose of compound intraperitoneally was expressed as percent of treated to control (T/C %); type: functional; details: route intraperitoneal
Mus musculus [26] = test: Anti tumor activity in olive oil when treated to mice with B16 melanocarcinoma with 20 mg/kg dose of compound intraperitoneally was expressed as percent of treated to control (T/C %); type: functional; details: route intraperitoneal
Mus musculus [27] = test: Median survival time of the non surviving mice; treated with 20 mg/kg of compound in olive oil to mice with B16 Melanocarcinoma; 12-47; type: functional
Mus musculus [28] = test: The number of L1210 leukemia mice survived after 30 days with compound injected by a dose of 10 mg/kg intraperitoneally; 9/10; type: functional; details: route intraperitoneal
Mus musculus [29] = test: Median survival time of the non surviving mice; treated with 2.5 mg/kg of compound to mice with L1210 leukemia; 40-54; type: functional
[30] = Ratio of mice died to that of mice treated with 20 mg/kg of compound in olive oil intraperitoneally with L1210 leukemia tumor; 0/15; type: functional; details: route intraperitoneal
Mus musculus [31] = test: The number of B16 Melanocarcinoma mice survived after 60 days with compound injected by a dose of 5 mg/kg intraperitoneally; 1/10; type: functional; details: route intraperitoneal
[32] = Mortality range of the mice with L1210 leukemia treated with 5 mg/kg of dose intraperitoneally with no of mice survived/no of mice treated; 0/8; type: functional; details: route intraperitoneal
Mus musculus [33] = test: Median survival time of the non surviving mice; treated with 2.5 mg/kg of compound to mice with L1210 leukemia; 11-14; type: functional
Mus musculus [34] = test: The number of B16 melanocarcinoma mice survived after 30 days with compound in olive oil injected by a dose of 20 mg/kg intraperitoneally; 13/20; type: functional; details: route intraperitoneal
Mus musculus [35] = test: The number of L1210 leukemia mice survived after 60 days with compound injected by a dose of 5 mg/kg intraperitoneally; 2/10; type: functional; details: route intraperitoneal
Mus musculus [36] = test: The number of L1210 Leukemia mice survived after 30 days with compound in olive oil injected by a dose of 20 mg/kg intraperitoneally; 15/15; type: functional; details: route intraperitoneal
Mus musculus [37] = test: The number of L1210 leukemia mice survived after 30 days with compound injected by a dose of 2.5 mg/kg intraperitoneally; 8/8; type: functional; details: route intraperitoneal
[38] = Mortality range of the mice with L1210 leukemia treated with 5 mg/kg of dose intraperitoneally with no of mice survived/no of mice treated; 0/10; type: functional; details: route intraperitoneal
Mus musculus [39] = test: The number of L1210 leukemia mice survived after 30 days with compound injected by a dose of 20 mg/kg intraperitoneally; 10/10; type: functional; details: route intraperitoneal
Mus musculus [40] = test: The number of L1210 leukemia mice survived after 30 days with compound injected by a dose of 2.5 mg/kg intraperitoneally; 0/10; type: functional; details: route intraperitoneal
Mus musculus [41] = test: The number of L1210 leukemia mice survived after 30 days with compound injected by a dose of 5 mg/kg intraperitoneally; 3/10; type: functional; details: route intraperitoneal
[42] = Ratio of mice died to that of mice treated with 5 mg/kg of compound in aqueous solution intraperitoneally with L1210 leukemia; 0/10; type: functional; details: route intraperitoneal
Mus musculus [43] = test: Median survival time of the non surviving mice; treated with 0.625 mg/kg of compound to mice with L1210 leukemia; 10-12; type: functional

Compound: CO[C@@H]1C[C@@H](NC(=O)N(CCCl)N=O)[C@H](O)[C@@H](CO)O1 [ECOMUSTINE]
- Survivals (Mus musculus [1]): 8
- LD10 (Mus musculus [2]): 31.2 mg/kg
- LD90 (Mus musculus [2]): 60 mg/kg
- LD50 [3]: 43.3 mg/kg
- Ratio [4]: 0
- Survivals (Mus musculus [5]): 3
- T/C (Mus musculus [6]): 188%
- Survivals (Mus musculus [7]): 7
- T/C (Mus musculus [8]): 203%
- Ratio [9]: 0
- Median survival time (Mus musculus [10]): 40
- Survivals (Mus musculus [11]): 9
- Ratio [12]: 1
- Survivals (Mus musculus [13]): 0
- Median survival time (Mus musculus [14]): 44
- Survivals (Mus musculus [15]): 10
- Survivals (Mus musculus [16]): 20
- Survivals (Mus musculus [17]): 9
- Ratio [18]: 0
- Survivals (Mus musculus [19]): 10
- Survival after 30 days (Mus musculus [20]): 0
- Survivals (Mus musculus [21]): 8
- Median survival time (Mus musculus [22]): 15.4
- Ratio [23]: 0
- Survivals (Mus musculus [24]): 18
- T/C (Mus musculus [25]): 644%
- T/C (Mus musculus [26]): 239%
- Median survival time (Mus musculus [27]): 33.33
- Survivals (Mus musculus [28]): 9
- Median survival time (Mus musculus [29]): 43.2
- Ratio [30]: 0
- Survivals (Mus musculus [31]): 1
- Ratio [32]: 0
- Median survival time (Mus musculus [33]): 12.9
- Survivals (Mus musculus [34]): 13
- Survivals (Mus musculus [35]): 2
- Survivals (Mus musculus [36]): 15
- Survivals (Mus musculus [37]): 8
- Ratio [38]: 0
- Survivals (Mus musculus [39]): 10
- Survivals (Mus musculus [40]): 0
- Survivals (Mus musculus [41]): 3
- Ratio [42]: 0
- Median survival time (Mus musculus [43]): 11.25
